Target: Carbonic anhydrase 9 (Homo sapiens, UniProt Q16790)
Description: Inhibition of CA9 (unknown origin)

Ki: 3.2 nM
Compound: NS(=O)(=O)c1ccc2c(c1)CCC2NC(=O)c1c(F)c(F)c(F)c(F)c1F (stereo unspecified)
